Measured values published in patent US20070208087A1, “Compounds, compositions and methods for the treatment of inflammatory diseases” (priority 2001, published 2007).
“And” between values parts separate entries of the source, which are not always exact repeats. Equal values may be shown once. Read-outs that look alike come from different tables or passages of the source.

Assays:
Assay type in all cases: cell-based
[1] = tested on: TNF-α release from microglia; assay: TNF-α release from LPS/IFNγ stimulated microglia, TNF-α ELISA (Example 11); details: for % inhibition: individual replicates; for inhibition at 50 µM: Microglia; for TNF-α ELISA raw reading (not NO; the printed μM unit is unsupported): 3 replicates
Protocol: Also, bis- and tris-dihydroxyaryl compound's ability to inhibit NO release strongly supports their interference with the inflammatory cascade and utlimately inhibition of inflammation. Microglia cells were plated at 1×10^5 cells/ml into 96 well plates. At day three, they were treated with 50 μM bis- and tris-dihydroxyaryl compound for 1 hour and then exposed to 10 μg/ml LPS+10 ng/ml IFNγ for 24 hours. 10 μl of media was removed and stored at −80° until TNF-α ELISA assays were performed. Samples were diluted 1:50 before running the TNF-α ELISA (kit commercially available from Sigma).

[2] = tested on: microglia; assay: Ranking of NO release inhibition (Example 12); details: Microglia, ranking table
Excerpt: The bis- and tris-dihydroxyaryl compounds were ranked in order of effectiveness for the inhibition of NO release as set out in Table 8.

[3] = tested on: EOC 13.31 microglial cells; assay: NO release inhibition screen in LPS/IFNγ stimulated microglia, Griess reaction at 48 hours (Example 7); details: for μM NO release Avg / % inhibition / inhibition at 50 µM: 50 uM + 10 μg/ml LPS/10 ng/ml IFNγ, 48 hours; for % inhibition: 50 µM; for inhibition of NO release, in words: 50 uM, LPS/IFNγ stimulated microglia; for inhibition at 50 µM: Microglia, 48 h
Protocol: In this experiment, additional bis- and tris-dihydroxyaryl compounds were screened for their ability to inhibit nitric oxide release from microglial cells. Microglial cells stimulated with LPS/IFNγ release nitric oxide. […] This is a continuation of screening experiments. EOC 13.31 microglial cells were plated into 96 well plates. At 24 hours and at confluency, cells were treated with 10 μg/ml LPS/10 ng/ml IFNγ+50 uM bis- and tris-dihydroxyaryl compounds.

[4] = tested on: EOC 13.31 microglia cells; assay: Inhibition of NO release from microglia following 24 hours pretreatment (Example 10); details: for inhibition at 50 µM: Microglia
Protocol: This experiment was designed to determine if pretreatment for 24 hours with bis- and tris-dihydroxyaryl compounds changes NO inhibition previously observed with concurrent exposure of bis- and tris-dihydroxyaryl compounds. […] This study seeks to determine if pretreatment with bis- and tris-dihydroxyaryl compounds increases NO release inhibition. EOC 13.31 microglia cells were plated at 1×10^6 cells/ml in 96 well plates. After 48 hours, confluent cells were exposed to 50 μM compound (stock 10 mM in DMSO) prepared in fresh cell culture media. After 24 hours, 10 μg/ml LPS and 10 ng/ml IFNγ was added to wells directly without a media change. Cells were incubated for a further 48 hours and nitric oxide release was measured using the Griess Reaction.

[5] = tested on: EOC 13.31 microglia cells; assay: NO release inhibition in LPS/IFNγ stimulated microglia, concurrent treatment, Griess reaction at 24 hours (Example 6); details: 24 hours; for NO release, Avg: 50 μM; for inhibition at 50 µM: Microglia
Protocol: The purpose of this experiment was to screen compounds 3, 4, 21, 26, 51, 52, 66, and 78 for their ability to inhibit Nitric oxide release from microglia. […] EOC 13.31 microglia cells were plated into 96 well plates for 24 hours. Confluent cells were treated with 50 μM of the bis- and tris-dihydroxyaryl compounds either with or without stimulation at 1 pg/ml LPS, and 1 ng/ml IFNγ. NO release was measured at 24 hours using the Griess reaction which is a spectrophotometric measure of NO release (reagents from Promega).

[6] = 50 uM compound, TNF-α release, 10 ug LPS and 10 ng IFNγ, 24 hours, 50 µM
[7] = 24 h, 50 uM compound, TNF-α release, 10 ug LPS and 10 ng IFNγ, 24 hours, read-out: Avg % Inhibition
[8] = single replicates, read-out: % inhibition
[9] = 50 uM pretreatment 24 hours, then LPS/IFNγ 48 hours, single replicates
[10] = 50 uM pretreatment 24 hours, then LPS/IFNγ 48 hours, read-out: Avg % Inhibition
[11] = 50 uM pretreatment 24 hours, then LPS/IFNγ 48 hours, single replicates, read-out: % inhibition
[12] = 50 μM pretreatment, read-out: inhibition of NO release following pretreatment
[13] = 50 uM compound, TNF-α release, 10 ug LPS and 10 ng IFNγ, 24 hours
[14] = 50 uM compound, 10 ug LPS and 10 ng IFNγ, 24 hours

| SMILES | % inhibition [1, 6] | inhibition at 50 µM [1, 7] [%] | inhibition at 50 µM [2] [%] | μM NO release Avg [3] [µM] | % inhibition ([3]; single replicates) | inhibition at 50 µM ([3]; read-out: Avg. % Inhibition) [%] | inhibition at 50 µM [3, 8] [%] | TNF-α ELISA raw reading (not NO; the printed μM unit is unsupported) [1, 14] | also measured |
| --- | --- | --- | --- | --- | --- | --- | --- | --- | --- |
| Oc1ccc(CN[C@@H]2CCCC[C@H]2NCc2ccc(O)c(O)c2)cc1O (relative stereo) [Compound 12, N,N′-bis(3,4-dihydroxybenzyl)-trans-1,2-diaminocyclohexane] | 15.81% and 25.24% and 10.54% | 17.2 | 32 | 18.976 | 26.72% and 33.23% | 31.6 | 34.9 | – | inhibition of NO release, in words [3]: effective inhibitors of NO release |
| O=C(c1ccc(O)c(O)c1)N1CCN(C(=O)c2ccc(O)c(O)c2)CC1 [Compound 23, 1,4-bis(3,4-dihydroxybenzoyl)piperazine] | −23.78% and −15.89% and −17.96% | -19.2 | 13 | 23.394 | 13.60% and 9.70% | 13.4 | 16.9 | – | – |
| O=C(Nc1ccc(O)c(O)c1)Nc1ccc(O)c(O)c1 [Compound 76, 1,3-bis(3,4-dihydroxyphenyl)urea] | – | – | 14 | 23.745 | 11.52% and 12.60% | 14.4 | 19.1 | – | % inhibition [4, 9]: 75.64% and 78.81%; inhibition at 50 µM [4, 10]: 76.3%; inhibition at 50 µM [4, 11]: 74.4%; inhibition at 50 µM [4, 12]: > 75% |
| O=C(CCC(=O)Nc1ccc(O)c(O)c1)Nc1ccc(O)c(O)c1 [Compound 66-2] | −14.08% and −17.70% and −9.32% | – | – | – | – | – | – | 0.889 µM and 0.838 µM and 0.867 µM | Avg % Inhibition [1, 13]: −13.70% |
| CN1C2CCC1C(Cc1ccc(O)c(O)c1)C(=O)C2Cc1ccc(O)c(O)c1 (stereo not shown) [Compound 19, 2,4-bis(3,4-dihydroxybenzyl)-3-tropinone] | – | – | 4 | 25.828 | 5.75% and 3.45% | 4.41 | 4.02 | – | inhibition at 50 µM [4, 12]: > 75% |
| O=C(C=Cc1ccc(O)c(O)c1)NCc1ccc(O)c(O)c1 [Compound 61, 3,4-dihydroxycinnamic acid 3,4-dihydroxybenzylamide] | −3.40% and −17.04% and −7.51% | -9.32 | 21 | 21.285 | 19.18% and 24.19% | 21.2 | 20.3 | – | inhibition of NO release, in words [3]: effective inhibitors of NO release |
| O=C(Nc1ccc(O)c(O)c1)c1ccc(O)c(O)c1 [Compound 51-1] | −17.57% and −12.94% and −13.42% | – | – | – | – | – | – | 0.880 µM and 0.883 µM and 0.909 µM | Avg % Inhibition [1, 6]: −14.64% |
| O=C(Nc1ccc(O)c(O)c1)c1ccc(O)c(O)c1 [Compound 51, 3,4-dihydroxybenzoic acid 3,4-dihydroxyanilide] | – | – | – | – | – | – | – | – | % inhibition [4, 9]: 47.81% and 59.20%; inhibition at 50 µM [4, 10]: 56%; inhibition at 50 µM [4, 11]: 61.1%; NO release, Avg ([5]; Compound + LPS/IFNγ): 20.6633 µM; NO release, Avg ([5]; Compound Only (without LPS/IFNγ)): 1.2500 µM; inhibition at 50 µM ([5]; Compound + LPS/IFNγ, read-out: % inhibition of NO release): -11%; inhibition at 50 µM ([5]; Table 2 summary, LPS/IFNγ, read-out: % Inhibition (summary of inhibition of NO release)): -11% |
| O=C(NCc1ccc(O)c(O)c1)Nc1ccc(O)c(O)c1 [Compound 77-1] | 4.66% and 4.16% and −1.10% | – | – | – | – | – | – | 0.756 µM and 0.788 µM and 0.753 µM | Avg % Inhibition [1, 13]: 2.58% |
| C[C@@H]1C[C@H]2[C@@H]3CCC4=CC(=O)C=C[C@]4(C)[C@@]3(F)[C@@H](O)C[C@]2(C)[C@@]1(O)C(=O)CO [Dexamethasone, reference compound] | – | – | – | – | – | – | – | – | inhibition at 50 µM ([1]; 50 μM for 1 hour, then 10 μg/ml LPS + 10 ng/ml IFNγ for 24 hours, read-out: inhibition of TNF-α release): 72.4% |
